Consider 11 compounds from BindingDB's records for doi:10.1016/j.bmcl.2019.05.013 (Daiichi Sankyo, 2019).

For this assay, the target named is T1, Solute carrier family 2, facilitated glucose transporter member 4 (Rattus norvegicus, UniProt P19357).
T1 sequence (P19357 whole entry): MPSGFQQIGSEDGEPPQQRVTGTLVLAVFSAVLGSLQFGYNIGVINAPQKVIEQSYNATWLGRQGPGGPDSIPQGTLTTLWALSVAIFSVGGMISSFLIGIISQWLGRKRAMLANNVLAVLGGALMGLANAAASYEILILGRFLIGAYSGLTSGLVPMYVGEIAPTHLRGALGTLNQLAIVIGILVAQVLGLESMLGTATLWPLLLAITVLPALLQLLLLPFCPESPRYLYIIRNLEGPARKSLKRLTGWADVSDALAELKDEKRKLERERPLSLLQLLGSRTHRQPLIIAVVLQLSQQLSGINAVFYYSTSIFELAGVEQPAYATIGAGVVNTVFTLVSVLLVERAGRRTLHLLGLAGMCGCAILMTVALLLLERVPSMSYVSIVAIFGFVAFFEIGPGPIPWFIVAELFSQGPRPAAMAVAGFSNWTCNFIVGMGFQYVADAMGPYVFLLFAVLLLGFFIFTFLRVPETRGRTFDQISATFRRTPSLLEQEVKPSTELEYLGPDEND
Description: Induction of GLUT4 translocation in rat L6-GLUT4myc differentiated myotube cells after 20 mins by chemiluminescent method.
Usually EC50 stands for the concentration that produces a half-maximal response. As for `COc1ccccc1-c1nnc(Nc2ccc(CC(N)=O)cc2)c2c1CCC2`, the EC50 turned out to be 4700 nM.

Turning to `NC(=O)Cc1ccc(Nc2nnc(-c3ccccc3OCc3cscn3)c3sccc23)c(F)c1`, a half-maximal response (EC50) required 110 nM.

`COc1ccccc1-c1nnc(Nc2ccc(CC(N)=O)cc2F)c2ccsc12`: a half-maximal response (EC50) required 650 nM.

`COCCOCCOc1ccccc1-c1nnc(Nc2ccc(CC(N)=O)cc2F)c2ccsc12`: the EC50 was 230 nM.

In the case of `CC(C)(C)OC(=O)NCCOCCOc1ccccc1-c1nnc(Nc2ccc(CC(N)=O)cc2F)c2ccsc12`, the EC50 was 24 nM.

In the case of `CC(C)(C)NC(=O)NCCOCCOc1ccccc1-c1nnc(Nc2ccc(CC(N)=O)cc2F)c2ccsc12`, a half-maximal response (EC50) required 120 nM.

In turn, `NC(=O)Cc1ccc(Nc2nnc(-c3ccccc3OCc3ccccn3)c3sccc23)c(F)c1` returned an EC50 of 140 nM.

`NC(=O)Cc1ccc(Nc2nnc(-c3ccccc3OCC3COCCO3)c3sccc23)c(F)c1` (stereo unspecified) registered an EC50 of 76 nM.

With `COCCOc1ccccc1-c1nnc(Nc2ccc(CC(N)=O)cc2F)c2ccsc12`, the EC50 was 140 nM.

`CC(C)(C)OC(=O)NCCCCOc1ccccc1-c1nnc(Nc2ccc(CC(N)=O)cc2F)c2ccsc12` gave an EC50 of 47 nM.

For `CCOC(=O)NCCCCOc1ccccc1-c1nnc(Nc2ccc(CC(N)=O)cc2F)c2ccsc12`, it took 230 nM to reach a half-maximal effect (EC50).
